Assay results: patent US8614201B2 (Janssen Pharmaceutica NV, priority 2009, dated 2013)

Biological target: Human TRPA1 (Homo sapiens, UniProt O75762)
Assay: Alternative TRPA1 Ca2+ fluorometry assay (hTRPA1/TREx-HEK293 cells, Fluo-4, FDSS 6000)
Format: cell-based
Set-up: expressed in transfected cells
Details: Fluo-4-AM, agonist 6,11-dihydro-5H-dibenzo[b,e]azepine-10-carboxylic acid methyl ester 25 nM, procedure used for Examples 184, 190 to 192, 194 to 316
Procedure, shortened: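 Tetracycline-induced (50 ng/ml, 24 h) hTRPA1/TREx-HEK293 cells were loaded with Fluo-4-AM and probenecid. Compound (1% DMSO final) was added after a 12 s baseline and the Ca2+ signal followed for 14 min, then 25 nM TRPA1 agonist dibenzazepine carboxylic acid methyl ester was applied. Signal is Em540 (ex 488 nm) relative to the first baseline reading.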

Human TRPA1, sequence (O75762 whole entry): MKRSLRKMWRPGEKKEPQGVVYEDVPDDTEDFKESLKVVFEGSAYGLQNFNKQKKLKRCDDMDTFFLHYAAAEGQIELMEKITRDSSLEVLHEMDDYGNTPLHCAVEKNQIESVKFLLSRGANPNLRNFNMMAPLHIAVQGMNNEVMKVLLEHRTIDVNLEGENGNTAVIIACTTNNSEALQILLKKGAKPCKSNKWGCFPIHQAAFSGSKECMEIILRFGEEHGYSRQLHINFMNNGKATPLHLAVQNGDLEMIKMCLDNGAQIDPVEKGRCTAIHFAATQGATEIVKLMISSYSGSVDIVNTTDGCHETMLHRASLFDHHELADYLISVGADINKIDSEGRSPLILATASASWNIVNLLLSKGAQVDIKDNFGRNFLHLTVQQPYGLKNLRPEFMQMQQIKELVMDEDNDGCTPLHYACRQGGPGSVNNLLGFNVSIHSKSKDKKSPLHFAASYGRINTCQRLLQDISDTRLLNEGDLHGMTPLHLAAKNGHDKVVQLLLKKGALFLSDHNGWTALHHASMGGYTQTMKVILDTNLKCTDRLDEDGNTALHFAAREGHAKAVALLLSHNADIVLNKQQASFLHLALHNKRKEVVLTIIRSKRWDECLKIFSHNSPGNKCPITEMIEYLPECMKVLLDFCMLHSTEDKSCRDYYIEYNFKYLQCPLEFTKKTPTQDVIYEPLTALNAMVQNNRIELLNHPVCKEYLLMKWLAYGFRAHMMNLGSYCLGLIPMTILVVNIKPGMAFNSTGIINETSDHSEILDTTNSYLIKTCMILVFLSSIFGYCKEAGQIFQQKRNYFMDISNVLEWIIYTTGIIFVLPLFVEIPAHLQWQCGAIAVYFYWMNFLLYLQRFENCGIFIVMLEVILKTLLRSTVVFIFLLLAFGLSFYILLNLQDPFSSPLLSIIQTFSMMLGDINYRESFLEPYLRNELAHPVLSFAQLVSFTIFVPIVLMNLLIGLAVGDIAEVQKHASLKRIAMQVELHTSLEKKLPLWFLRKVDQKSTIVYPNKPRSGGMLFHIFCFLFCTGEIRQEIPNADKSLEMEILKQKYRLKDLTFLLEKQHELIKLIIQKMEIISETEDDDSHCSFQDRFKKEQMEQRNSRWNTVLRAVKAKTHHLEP

Point of comparison: O=C(NCc1cc(-c2ccc(C(F)(F)F)cc2)nc(N2CCN(c3ccccc3F)CC2)n1)[C@@H]1CCCN1S(=O)(=O)c1ccc(F)c(Cl)c1 [Example 259, 1-(3-Chloro-4-fluoro-benzenesulfonyl)-pyrrolidine-2S-carboxylic acid [2-[4-(2-fluoro-phenyl)-piperazin-1-yl]-6-(4-trifluoromethyl-phenyl)-pyrimidin-4-ylmethyl]-amide], IC50 3.55 µM. Against it:
- O=C(NCc1cc(-c2ccccc2)nc(N2CCN(c3ccccc3F)CC2)n1)[C@@H]1CCCN1S(=O)(=O)c1ccc(F)cc1 [Example 251, 1-(4-Fluoro-benzenesulfonyl)-pyrrolidine-2S-carboxylic acid {2-[4-(2-fluoro-phenyl)-piperazin-1-yl]-6-phenyl-pyrimidin-4-ylmethyl}-amide] — within 1.5-fold, 2.51 µM
- O=C(NCc1cc(-c2ccc(C(F)(F)F)cc2)nc(N2CCN(c3ccccc3F)CC2)n1)[C@@H]1CCCN1S(=O)(=O)c1ccc(F)cc1Cl [Example 252, 1-(2-Chloro-4-fluoro-benzenesulfonyl)-pyrrolidine-2S-carboxylic acid [2-[4-(2-fluoro-phenyl)-piperazin-1-yl]-6-(4-trifluoromethyl-phenyl)-pyrimidin-4-ylmethyl]-amide] — higher, > 10 µM
- COc1cccc(S(=O)(=O)N2CCC[C@H]2C(=O)NCc2cc(-c3ccc(C(F)(F)F)cc3)nc(N3CCN(c4ccccc4F)CC3)n2)c1 [Example 253, 1-(3-Methoxy-benzenesulfonyl)-pyrrolidine-2S-carboxylic acid [2-[4-(2-fluoro-phenyl)-piperazin-1-yl]-6-(4-trifluoromethyl-phenyl)-pyrimidin-4-ylmethyl]-amide] — higher, > 10 µM
- O=C(NCc1cc(-c2ccc(C(F)(F)F)cc2)nc(N2CCN(c3ccccc3F)CC2)n1)[C@@H]1CCCN1S(=O)(=O)c1cccc(Cl)c1 [Example 254, 1-(3-Chloro-benzenesulfonyl)-pyrrolidine-2S-carboxylic acid [2-[4-(2-fluoro-phenyl)-piperazin-1-yl]-6-(4-trifluoromethyl-phenyl)-pyrimidin-4-ylmethyl]-amide] — higher, > 10 µM
- COc1ccc(S(=O)(=O)N2CCC[C@H]2C(=O)NCc2cc(-c3ccc(C(F)(F)F)cc3)nc(N3CCN(c4ccccc4F)CC3)n2)cc1 [Example 255, 1-(4-Methoxy-benzenesulfonyl)-pyrrolidine-2S-carboxylic acid [2-[4-(2-fluoro-phenyl)-piperazin-1-yl]-6-(4-trifluoromethyl-phenyl)-pyrimidin-4-ylmethyl]-amide] — higher, > 10 µM
- Cc1ccc(F)cc1S(=O)(=O)N1CCC[C@H]1C(=O)NCc1cc(-c2ccc(C(F)(F)F)cc2)nc(N2CCN(c3ccccc3F)CC2)n1 [Example 256, 1-(5-Fluoro-2-methyl-benzenesulfonyl)-pyrrolidine-2-carboxylic acid [2-[4-(2-fluoro-phenyl)-piperazin-1-yl]-6-(4-trifluoromethyl-phenyl)-pyrimidin-4-ylmethyl]-amide] — higher, > 10 µM
- O=C(NCc1cc(-c2ccc(C(F)(F)F)cc2)nc(N2CCN(c3ccccc3F)CC2)n1)[C@@H]1CCCN1S(=O)(=O)c1cc(Cl)ccc1F [Example 257, 1-(5-Chloro-2-fluoro-benzenesulfonyl)-pyrrolidine-2S-carboxylic acid [2-[4-(2-fluoro-phenyl)-piperazin-1-yl]-6-(4-trifluoromethyl-phenyl)-pyrimidin-4-ylmethyl]-amide] — higher, > 10 µM
- O=C(NCc1cc(-c2ccc(C(F)(F)F)cc2)nc(N2CCN(c3ccccc3F)CC2)n1)[C@@H]1CCCN1S(=O)(=O)c1ccc(F)c(F)c1 [Example 258, 1-(3,4-Difluoro-benzenesulfonyl)-pyrrolidine-2S-carboxylic acid [2-[4-(2-fluoro-phenyl)-piperazin-1-yl]-6-(4-trifluoromethyl-phenyl)-pyrimidin-4-ylmethyl]-amide] — 11-fold lower, 0.324 µM
- CC(C)c1ccc(S(=O)(=O)N2CCC[C@H]2C(=O)NCc2cc(-c3ccc(C(F)(F)F)cc3)nc(N3CCN(c4ccccc4F)CC3)n2)cc1 [Example 260, 1-(4-Isopropyl-benzenesulfonyl)-pyrrolidine-2S-carboxylic acid [2-[4-(2-fluoro-phenyl)-piperazin-1-yl]-6-(4-trifluoromethyl-phenyl)-pyrimidin-4-ylmethyl]-amide] — higher, > 10 µM
- O=C(NCc1cc(-c2ccc(C(F)(F)F)cc2)nc(N2CCN(c3ccccc3F)CC2)n1)[C@@H]1CCCN1S(=O)(=O)c1ccc(F)c(F)c1F [Example 261, 1-(2,3,4-Trifluoro-benzenesulfonyl)-pyrrolidine-2S-carboxylic acid [2-[4-(2-fluoro-phenyl)-piperazin-1-yl]-6-(4-trifluoromethyl-phenyl)-pyrimidin-4-ylmethyl]-amide] — within 1.5-fold, 2.69 µM
- Cc1c(Cl)cccc1S(=O)(=O)N1CCC[C@H]1C(=O)NCc1cc(-c2ccc(C(F)(F)F)cc2)nc(N2CCN(c3ccccc3F)CC2)n1 [Example 262, 1-(3-Chloro-2-methyl-benzenesulfonyl)-pyrrolidine-2S-carboxylic acid [2-[4-(2-fluoro-phenyl)-piperazin-1-yl]-6-(4-trifluoromethyl-phenyl)-pyrimidin-4-ylmethyl]-amide] — higher, > 10 µM
- O=C(NCc1cc(-c2ccc(C(F)(F)F)cc2)nc(N2CCN(c3ccccc3F)CC2)n1)[C@@H]1CCCN1S(=O)(=O)c1ccc(Cl)s1 [Example 263, 1-(5-Chloro-thiophene-2-sulfonyl)-pyrrolidine-2S-carboxylic acid [2-[4-(2-fluoro-phenyl)-piperazin-1-yl]-6-(4-trifluoromethyl-phenyl)-pyrimidin-4-ylmethyl]-amide] — 19-fold lower, 0.191 µM
- O=C(NCc1cc(-c2ccc(C(F)(F)F)cc2)nc(N2CCN(c3ccccc3F)CC2)n1)[C@@H]1CCCN1S(=O)(=O)c1cccs1 [Example 264, 1-(Thiophene-2-sulfonyl)-pyrrolidine-2S-carboxylic acid [2-[4-(2-fluoro-phenyl)-piperazin-1-yl]-6-(4-trifluoromethyl-phenyl)-pyrimidin-4-ylmethyl]-amide] — 3.8-fold lower, ~0.933 µM
- CCCc1ccc(S(=O)(=O)N2CCC[C@H]2C(=O)NCc2cc(-c3ccc(C(F)(F)F)cc3)nc(N3CCN(c4ccccc4F)CC3)n2)cc1 [Example 265, 1-(4-Propyl-benzenesulfonyl)-pyrrolidine-2S-carboxylic acid [2-[4-(2-fluoro-phenyl)-piperazin-1-yl]-6-(4-trifluoromethyl-phenyl)-pyrimidin-4-ylmethyl]-amide] — higher, > 10 µM
- Cc1ccc(C)c(S(=O)(=O)N2CCC[C@H]2C(=O)NCc2cc(-c3ccc(C(F)(F)F)cc3)nc(N3CCN(c4ccccc4F)CC3)n2)c1 [Example 266, 1-(2,5-Dimethyl-benzenesulfonyl)-pyrrolidine-2S-carboxylic acid [2-[4-(2-fluoro-phenyl)-piperazin-1-yl]-6-(4-trifluoromethyl-phenyl)-pyrimidin-4-ylmethyl]-amide] — higher, > 10 µM
- O=C(NCc1cc(-c2ccc(C(F)(F)F)cc2)nc(N2CCN(c3ccccc3F)CC2)n1)[C@@H]1CCCN1S(=O)(=O)c1ccc(F)cc1F [Example 267, 1-(2,4-Difluoro-benzenesulfonyl)-pyrrolidine-2S-carboxylic acid [2-[4-(2-fluoro-phenyl)-piperazin-1-yl]-6-(4-trifluoromethyl-phenyl)-pyrimidin-4-ylmethyl]-amide] — 2.2-fold higher, 7.94 µM
- O=C(NCc1cc(-c2ccc(C(F)(F)F)cc2)nc(N2CCN(c3ccccc3F)CC2)n1)[C@@H]1CCCN1S(=O)(=O)c1ccccc1Cl [Example 268, 1-(2-Chloro-benzenesulfonyl)-pyrrolidine-2S-carboxylic acid [2-[4-(2-fluoro-phenyl)-piperazin-1-yl]-6-(4-trifluoromethyl-phenyl)-pyrimidin-4-ylmethyl]-amide] — higher, > 10 µM
- O=C(NCc1cc(-c2ccc(C(F)(F)F)cc2)nc(N2CCN(c3ccccc3F)CC2)n1)[C@@H]1CCCN1S(=O)(=O)c1ccc(Cl)cc1 [Example 269, 1-(4-Chloro-benzenesulfonyl)-pyrrolidine-2S-carboxylic acid [2-[4-(2-fluoro-phenyl)-piperazin-1-yl]-6-(4-trifluoromethyl-phenyl)-pyrimidin-4-ylmethyl]-amide] — 16-fold lower, 0.229 µM
- O=C(NCc1cc(-c2ccc(C(F)(F)F)cc2)nc(N2CCN(c3ccccc3F)CC2)n1)[C@@H]1CCCN1S(=O)(=O)c1cccc(F)c1 [Example 270, 1-(3-Fluoro-benzenesulfonyl)-pyrrolidine-2S-carboxylic acid [2-[4-(2-fluoro-phenyl)-piperazin-1-yl]-6-(4-trifluoromethyl-phenyl)-pyrimidin-4-ylmethyl]-amide] — 5.1-fold lower, 0.692 µM
- Cc1cccc(S(=O)(=O)N2CCC[C@H]2C(=O)NCc2cc(-c3ccc(C(F)(F)F)cc3)nc(N3CCN(c4ccccc4F)CC3)n2)c1 [Example 271, 1-(Toluene-3-sulfonyl)-pyrrolidine-2S-carboxylic acid [2-[4-(2-fluoro-phenyl)-piperazin-1-yl]-6-(4-trifluoromethyl-phenyl)-pyrimidin-4-ylmethyl]-amide] — higher, > 10 µM
- O=C(NCc1cc(-c2ccc(C(F)(F)F)cc2)nc(N2CCN(c3ccccc3F)CC2)n1)[C@@H]1CCCN1S(=O)(=O)c1ccccc1 [Example 272, 1-Benzenesulfonyl-pyrrolidine-2S-carboxylic acid [2-[4-(2-fluoro-phenyl)-piperazin-1-yl]-6-(4-trifluoromethyl-phenyl)-pyrimidin-4-ylmethyl]-amide] — 8.1-fold lower, ~0.436 µM
- O=C(NCc1cc(-c2ccc(C(F)(F)F)cc2)nc(N2CCN(c3ccccc3F)CC2)n1)[C@@H]1CCCN1S(=O)(=O)c1cccc(Cl)c1F [Example 273, 1-(3-Chloro-2-fluoro-benzenesulfonyl)-pyrrolidine-2S-carboxylic acid [2-[4-(2-fluoro-phenyl)-piperazin-1-yl]-6-(4-trifluoromethyl-phenyl)-pyrimidin-4-ylmethyl]-amide] — higher, > 10 µM
